Experimental findings from patent US5691365A, “Nicotinic receptor antagonists in the treatment of neuropharmacological disorders” (University of Kentucky Research Foundation, priority 1995, dated 1997) are described below.

For test [1], the system named is [^3 H]DA release from rat striatal slices. Nature of the test: [3H]DA release assay: compound-evoked (intrinsic agonist) release. The format is cell-based. Also on record: key to total [3H]overflow (effect on [3H]DA release): summed increase in fractional release (sample tritium / tissue tritium). The following applies: for total [3H]overflow (effect on [3H]DA release): mean ± S.E.M.; for total [3H]overflow (effect on [3H]DA release) / effect on [3H]DA release / intrinsic agonist activity (in words): rat striatal slices. How it is done: (§1) Biological Methods. Male Spragua-Dawley rats (150-200 g) were obtained from Harlan Laboratories (Indianapolis, Ind.) and were housed two per cage with free access to food and water in the Division of Lab Animal Resources at the College of Pharmacy at the University of Kentucky. Experimental protocols involving the animals were approved by the Institutional Animal Care and Use Committee at the University of Kentucky.
(§2) [^3 H]DA Release Assay. Rat striatal slices (500 μm thickness, 6-8 mg wet weight) were obtained as previously described (Dwoskin and Zahniser, 1986). Slices were incubated for 30 min in Krebs' buffer ([…]; 118 NaCl, 4.7 KCl, 1.2 MgCl2, 1.0 NaH2 PO4, 1.3 CaCl2, […], 11.1 glucose, 25 NaHCO3, 0.11 L-ascorbic acid nd 0.004 disodium EDTA; pH 7.4 and saturated with 95% O2 /5% CO2) in a metabolic shaker at 34°. Slices were rinsed with 15 ml of fresh buffer and incubated for an additional 30 min in fresh buffer containing 0.1 μM [^3 H]dopamine (6 slices/3 ml). Subsequently, slices were rinsed with 15 ml of fresh buffer and transferred to a glass superfusion chamber. Slices were superfused (1.0 ml/min) for 60 min with Krebs' buffer containing nomifensine (10 μm) and pargyline (10 μm) and maintained at 34° C., pH 7.4 with continual aeration (95% O2 /5% CO2). Two 5-min samples (5 ml) were collected to determine basal outflow of [^3 H]DA. N-Substituted nicotine analogues were added to the superfusion buffer after the collection of the second sample and remained in the buffer until 12 consecutive 5-min samples were collected. […] At the end of the experiment each slice was solubilized and the [^3 H] content of the tissue determined.
(§3) Radioactivity in the superfusate and tissue samples was determined by liquid scintillation spectroscopy. Fractional release for each superfusate sample was calculated by dividing the total tritium collected in each sample by the total tritium present in the tissue at the time of sample collection. Basal [^3 H]out flow was calculated from the average of the tritium collected in the two 5-min samples just before addition of the N-substituted nicotine analogue. The sums of the increase in collected tritium resulting from either exposure to the test compound or exposure to nicotine in the absence and presence of the test compound equaled total [^3 H]overflow. [^3 H]overflow was calculated by subtracting the [^3 H]outflow during an equivalent period of prestimulation from the values in samples collected during and after drug exposure. Inasmuch as the radiolabelled compounds were not separated and identified, the tritium collected in superfusate is referred to as either [^3 H]outflow or [^3 H]overflow, rather than as [^3 H]DA. [^3 H]Overflow primarily represents [^3 H]DA in the presence of nomifensine and pargyline in the superfusion buffer (Zumstein et al. 1981).

In test [2] the test system is S(-)nicotine (10 μM)-evoked [^3 H]DA release from rat striatal slices. In kind it is cell-based. How it is done:
as §1, §2, §3
In these experiments, the striatal slices were superfused for 60 min with various concentrations of the analogues prior to nicotine (10 μM) exposure. Antagonist activity was evaluated by comparing the nicotine-evoked [^3 H]overflow in the absence and presence of the analogues. […] The relative order of potency of the classical and pyridine-N substituted nicotine analogues for inhibition of nicotine-evoked [^3 H]DA release from rat striatal slices is illustrated in FIG. 2 by a comparison of their IC50 values.
FIG. 2. IC50 values for N-substituted analogues of nicotine, nornicotine, and cotinine to inhibit nicotine-evoked [^3 H]DA release from rat striatal slices. Inhibition produced by the classical nicotinic inhibitors, mecamylamine (MEC) and DHBE was also determined. Slices were superfused with inhibitor for 60 min […] co-superfusion with 10 μM nicotine. Inhibition was determined by comparing [^3 H]DA release in the absence and presence of various concentrations of inhibitor. IC50 values were determined using the Logit-log plot (pseudo-Hill plot). […] IC50 for each animal was determined as the intercept of the linear regression.

Setting [3] is: Rattus norvegicus, read-out: evoked [3H]DA release relative to S(-)nicotine.

Values joined by “and” are separate entries in the source; they are usually repeats but may differ in a detail not shown here. Equal values may be shown once. “Also recorded” adds a separate entry of the source.

With `C=CCN1CCCC1c1ccc[n+](CC=C)c1` (racemic) [(±)DNANI, (±)di-N-allyl nicotinium iodide], in test [1] (Table 3, 1 μM), the “total [3H]overflow (effect on [3H]DA release)” value is given as 0.02 ± 0.01. Also, the “total [3H]overflow (effect on [3H]DA release)” value in test [1] (Table 3, 10 μM) was 0.08 ± 0.04. In test [1] (Table 3, 100 μM), the “total [3H]overflow (effect on [3H]DA release)” value is 0.00 ± 0.00. Moreover, in test [2], the “nicotinic antagonist activity / inhibition of nicotine-evoked [3H]DA release (in words)” value is “did not exhibit significant nicotinic antagonist activity over the concentration range tested; also recorded: relatively weak antagonist activity compared to the N-allyl nicotine analogue (NANI)”; the “relative order of potency for inhibition of nicotine-evoked [3H]DA release (comparison of IC50 values)” value is “(±)di-N-allyl nicotinium iodide (DNANI)=(±)N-methyl nornicotinium iodide (NMNNI)=NMNI”; the “total [3H]overflow during cosuperfusion with 10 μM nicotine” value (shortened to “total [3H]overflow during cosuperfusion”) is 2.58 ± 0.54 and 1.85 ± 0.25 and 1.66 ± 0.36.

As for `C[n+]1cccc(C2CCCN2)c1` (racemic) [(±)NMNNI, (±)N-methyl nornicotinium iodide], the “total [3H]overflow (effect on [3H]DA release)” value in test [1] (Table 3, 1 μM) is reported as 0.17 ± 0.11. The “total [3H]overflow (effect on [3H]DA release)” value in test [1] (Table 3, 10 μM) is given as 0.01 ± 0.01. Moreover, the “total [3H]overflow (effect on [3H]DA release)” value in test [1] (Table 3, 100 μM) worked out at 2.60 ± 0.38. Moreover, the “effect on [3H]DA release / intrinsic agonist activity (in words)” value in test [1] (1-100 μM) is “evoked [^3 H]DA release and thus, possess intrinsic agonist activity at this concentration”. In addition, in test [2], the “nicotinic antagonist activity / inhibition of nicotine-evoked [3H]DA release (in words)” value is recorded as “did not exhibit significant nicotinic antagonist activity over the concentration range tested”; the “relative order of potency for inhibition of nicotine-evoked [3H]DA release (comparison of IC50 values)” value was “(±)di-N-allyl nicotinium iodide (DNANI)=(±)N-methyl nornicotinium iodide (NMNNI)=NMNI”; the “total [3H]overflow during cosuperfusion” value was 2.22 ± 1.26 and 3.53 ± 0.85.

For `c1cncc([C@@H]2CCCN2)c1` (racemic) [(±)nornicotine, racemic nornicotine, reference compound], the Emax in test [1] (setting [3]) is ~80%. In test [1] (setting [3]), the Emax at 1 µM was 50%. The “total [3H]overflow (effect on [3H]DA release)” value stood at 1.40 ± 0.24 in test [1] (Table 2, 1 μM); 2.60 ± 0.38 in test [1] (Table 2, 10 μM); 4.20 ± 0.34 in test [1] (Table 2, 100 μM). The “effect on [3H]DA release / intrinsic agonist activity (in words)” value is “concentration-dependent increase in [^3 H]DA release” in test [1] (1-100 μM as stated, listed as Racemic nornicotine) and “less potent in producing this effect” in test [1] (1-100 μM as stated, listed as nornicotine).

For `CO[C@H]1CC=C2CCN3CCC4=C(CC(=O)OC4)[C@]23C1` [DHBE, dihydro-β-erythroidine, reference compound], the “total [3H]overflow (effect on [3H]DA release)” value is on record as 0.02 ± 0.02 in test [1] (Table 3, 1 μM); 0.36 ± 0.22 in test [1] (Table 3, 10 μM); 2.01 ± 0.28 in test [1] (Table 3, 100 μM). Also, in test [1] (1-100 μM), the “effect on [3H]DA release / intrinsic agonist activity (in words)” value is “None of the compounds examined, including DHBE and mecamylmine, had any significant effect on [^3 H]DA release in the concentration range of 1-10 μM; also recorded: also evoked [^3 H]DA release; also recorded: evoked [^3 H]DA release at the highest concentration examined”. The “nicotinic antagonist activity / inhibition of nicotine-evoked [3H]DA release (in words)” value in test [2] is “inhibited but did not completely block nicotine's effect”. Also, the “relative order of potency for inhibition of nicotine-evoked [3H]DA release (comparison of IC50 values)” value in test [2] is reported as “DHBE=MEC>>NBNB”.

As for `CNC1(C)C2CCC(C2)C1(C)C` (stereo not shown) [MEC, mecamylamine, reference compound], the “total [3H]overflow (effect on [3H]DA release)” value in test [1] (Table 3, 1 μM) turned out to be 0.00 ± 0.00; in test [1] (Table 3, 10 μM), 0.00 ± 0.00; in test [1] (Table 3, 100 μM), 0.00 ± 0.00. Further, in test [1] (1-100 μM), the “effect on [3H]DA release / intrinsic agonist activity (in words)” value was “None of the compounds examined, including DHBE and mecamylmine, had any significant effect on [^3 H]DA release in the concentration range of 1-10 μM”. Moreover, the “nicotinic antagonist activity / inhibition of nicotine-evoked [3H]DA release (in words)” value in test [2] was “inhibited but did not completely block nicotine's effect”. For the same compound, the “relative order of potency for inhibition of nicotine-evoked [3H]DA release (comparison of IC50 values)” value in test [2] was “DHBE=MEC>>NBNB”.

Consider `CN1CCC[C@H]1c1ccc[n+](Cc2ccccc2)c1` [NBNB, S-N-benzyl nicotinium bromide], for which the “total [3H]overflow (effect on [3H]DA release)” value in test [1] (Table 3, 1 μM) was 0.21 ± 0.12; in test [1] (Table 3, 10 μM), 0.28 ± 0.12; in test [1] (Table 3, 100 μM), 6.04 ± 0.97. The “effect on [3H]DA release / intrinsic agonist activity (in words)” value in test [1] (1-100 μM) is “evoked [^3 H]DA release and thus, possess intrinsic agonist activity at this concentration”. The “nicotinic antagonist activity / inhibition of nicotine-evoked [3H]DA release (in words)” value in test [2] was “Significant antagonist activity; also recorded: significantly lower potency and efficacy; also recorded: possessing antagonist activity; also recorded: preferred nicotinic receptor antagonist activity”. Also, in test [2], the “relative order of potency for inhibition of nicotine-evoked [3H]DA release (comparison of IC50 values)” value is given as “NBNB=NPNI=NnNBI=NANI>NHENI”. Also, the “total [3H]overflow during cosuperfusion” value in test [2] is 1.50 ± 0.55 and 1.27 ± 0.35.

With `CN1CCC[C@H]1c1ccc[n+](CCO)c1` [NHENI, S-N-hydroxyethyl nicotinium iodide], the “total [3H]overflow (effect on [3H]DA release)” value in test [1] (Table 3, 1 μM) was determined as 0.00 ± 0.00; in test [1] (Table 3, 10 μM) it was 0.00 ± 0.00; in test [1] (Table 3, 100 μM) it was 0.08 ± 0.04. Moreover, the “nicotinic antagonist activity / inhibition of nicotine-evoked [3H]DA release (in words)” value in test [2] is on record as “Significant antagonist activity; also recorded: preferred nicotinic receptor antagonist activity”. Further, the “relative order of potency for inhibition of nicotine-evoked [3H]DA release (comparison of IC50 values)” value in test [2] is “NHENI>>>(±)di-N-allyl nicotinium iodide (DNANI)”.

In the case of `CN1C(=O)CC[C@H]1c1ccc[n+](C)c1` [NMCI, S-N-methylcotininium iodide], the “total [3H]overflow (effect on [3H]DA release)” value in test [1] (Table 3, 1 μM) is on record as 0.00 ± 0.00; in test [1] (Table 3, 10 μM), 0.01 ± 0.01; in test [1] (Table 3, 100 μM) it was 0.02 ± 0.01. Moreover, in test [2], the “nicotinic antagonist activity / inhibition of nicotine-evoked [3H]DA release (in words)” value is recorded as “did not exhibit significant nicotinic antagonist activity over the concentration range tested; also recorded: devoid of antagonist activity”. In test [2], the “relative order of potency for inhibition of nicotine-evoked [3H]DA release (comparison of IC50 values)” value is listed as “NMNI=S-N-methylcotininium iodide (NMCI)=S-N'-methyl nicotinium iodide (PIPNMN)”. For the same compound, the “total [3H]overflow during cosuperfusion” value in test [2] is 3.11 ± 1.32 and 3.11 ± 1.20 and 3.75 ± 1.66.

As for `CN1CCC[C@H]1c1ccc[n+](C)c1` [NMNI], the “total [3H]overflow (effect on [3H]DA release)” value in test [1] (Table 3, 1 μM) is 0.13 ± 0.11; in test [1] (Table 3, 10 μM) it was 0.17 ± 0.10; in test [1] (Table 3, 100 μM) it was 0.08 ± 0.06. Also, the “nicotinic antagonist activity / inhibition of nicotine-evoked [3H]DA release (in words)” value in test [2] is recorded as “did not exhibit significant nicotinic antagonist activity over the concentration range tested; also recorded: no antagonistic activity; also recorded: devoid of antagonist activity”. In addition, the “relative order of potency for inhibition of nicotine-evoked [3H]DA release (comparison of IC50 values)” value in test [2] was “NMNI=S-N-methylcotininium iodide (NMCI)=S-N'-methyl nicotinium iodide (PIPNMN)”.

Take `CN1C(=O)CC[C@H]1c1cccnc1` [S(-)cotinine, reference compound]: the Emax in test [1] (setting [3]) came to 35%. Besides, the “total [3H]overflow (effect on [3H]DA release)” value in test [1] (Table 2, 1 μM) is recorded as 0 ± 0; in test [1] (Table 2, 10 μM), 1.14 ± 0.36; in test [1] (Table 2, 100 μM), 2.06 ± 0.35. Further, the “effect on [3H]DA release / intrinsic agonist activity (in words)” value in test [1] (1-100 μM as stated, listed as Cotinine) is “no effect at 1 μM”; in test [1] (1-100 μM as stated, listed as S(-)Cotinine), “little effect even at high concentrations in the DA release assay”.
